Here are results for 25 molecules from patent publication US11220510B2, “Pyrrole tricyclic compounds as A2A / A2B inhibitors” (Incyte Corporation, priority 2018, dated 2022).

In assay [1] the target is Adenosine A2A receptor (Tag-lite Adenosine A2A labeled cells) (Homo sapiens (Human), UniProt P29274). In words: A2A Tag-lite HTRF assay (fluorescent ligand displacement). To be noted: Red antagonist fluorescent ligand 12.5 nM, one-site competitive binding model, read-out: A2A_Ki. An excerpt: Example C. A2A Tag-Lite® HTRF Assay
The final concentration of DMSO was 1%.
Background: Time-resolved FRET reads energy transfer from a long-lived donor to a nearby acceptor.

In assay [2] the target is human adenosine A2B receptor (Homo sapiens (Human), UniProt P29275). In words: Adenosine A2B Receptor Cyclic AMP GS Assay. The format is cell-based. Particulars: HEK-293 cells expressing human A2B; agonist NECA 12 nM; cAMP accumulation by FRET; read-out: A2B_cAMP_EC50. The method, then:
Example B. Adenosine A2B Receptor Cyclic AMP GS Assay Stably transfected HEK-293 cells expressing the human adenosine A2B receptor (Perkin Elmer) were maintained in MEM culture medium with 10% FBS and 100 μg/ml Geneticin (Life Technologies). 18 to 24 hours prior to assay, geneticin was removed from culture. The cisbio cAMP-GS Dynamic kit utilizing the FRET (Fluorescence Resonance Energy Transfer) technology was used to measure cAMP accumulation in the cells. Compounds of the present disclosure at an appropriate concentration were mixed with 10000 cells/well in white 96 well half area plates (Perkin Elmer) for 30 min at room temperature gently shaking. Agonist, NECA (R&D Technologies) at 12 nM was added to each well for 60 min at room temperature gently shaking. Detection reagents, d2-labeled cAMP (acceptor) and anti-cAMP cryptate (donor) were added to each well for 60 min at RT gently shaking. Plates were read on Pherastar (BMG Labtech), fluorescence ratio 665/620 was calculated and EC50 determination was performed by fitting the curve of percent of control versus the log of the compound concentration using GraphPad Prism.
In general terms: Changes in cAMP serve as a functional read-out for many G protein-coupled receptors.

Chain of human adenosine A2B receptor (P29275 whole entry): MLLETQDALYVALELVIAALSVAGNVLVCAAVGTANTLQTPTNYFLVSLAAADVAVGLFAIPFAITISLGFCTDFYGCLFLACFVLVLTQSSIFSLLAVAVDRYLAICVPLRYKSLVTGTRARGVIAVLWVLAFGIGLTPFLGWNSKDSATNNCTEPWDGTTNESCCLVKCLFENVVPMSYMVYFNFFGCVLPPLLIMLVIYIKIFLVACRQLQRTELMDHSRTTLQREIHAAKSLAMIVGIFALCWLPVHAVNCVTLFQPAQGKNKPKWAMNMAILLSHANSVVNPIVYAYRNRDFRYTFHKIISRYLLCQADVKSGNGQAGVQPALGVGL
Chain of Adenosine A2A receptor (Tag-lite Adenosine A2A labeled cells) (P29274 whole entry): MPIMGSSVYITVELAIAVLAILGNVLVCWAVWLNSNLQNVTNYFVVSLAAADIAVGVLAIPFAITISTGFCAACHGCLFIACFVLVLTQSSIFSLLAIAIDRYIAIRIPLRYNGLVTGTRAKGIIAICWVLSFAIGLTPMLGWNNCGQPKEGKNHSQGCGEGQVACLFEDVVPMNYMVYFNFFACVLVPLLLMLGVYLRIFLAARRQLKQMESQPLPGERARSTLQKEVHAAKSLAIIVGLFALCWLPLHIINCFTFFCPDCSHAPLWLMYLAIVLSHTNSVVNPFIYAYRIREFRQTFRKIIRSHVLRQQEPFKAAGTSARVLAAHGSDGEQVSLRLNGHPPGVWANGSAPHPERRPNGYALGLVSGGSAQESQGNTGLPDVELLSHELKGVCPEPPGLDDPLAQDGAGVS

For `CCCCn1c2cc(-c3cnn(C4CN(c5nccc(C#N)n5)C4)c3)[nH]c2c(=O)n2c(C)nnc12` [Example 25, 2-(3-(4-(9-Butyl-3-methyl-5-oxo-6,9-dihydro-5H-pyrrolo[3,2-d][1,2,4]triazolo[4,3-a]pyrimidin-7-yl)-1H-pyrazol-1-yl)azetidin-1-yl)pyrimidine-4-carbonitrile], the Ki in assay [1] was less than 10 nM. The EC50 in assay [2] lay in the range of 10 to 100 nM.

On to `CCCCCn1c2c(-c3ccccc3)c[nH]c2c(=O)n2c(C)nnc12` [Example 15, 3-Methyl-9-pentyl-8-phenyl-6,9-dihydro-5H-pyrrolo[3,2-d][1,2,4]triazolo[4,3-a]pyrimidin-5-one], for which the Ki in assay [1] lay within 100 to 1000 nM.

For `CCCCCn1c2cc(-c3cnn(Cc4cnc5cccnc5c4)c3)[nH]c2c(=O)n2c(C(F)(F)F)nnc12` [Example 12, 7-(1-((1,5-Naphthyridin-3-yl)methyl)-1H-pyrazol-4-yl)-9-pentyl-3-(trifluoromethyl)-6,9-dihydro-5H-pyrrolo[3,2-d][1,2,4]triazolo[4,3-a]pyrimidin-5-one], the Ki in assay [1] is less than 10 nM. Besides, the EC50 in assay [2] was less than 10 nM. For `CCCCCn1c2cc[nH]c2c(=O)n2c(C)cnc12` [Example 18, 7-Methyl-4-pentyl-1H-imidazo[1,2-a]pyrrolo[3,2-d]pyrimidin-9(4H)-one], in assay [1], the Ki is 10 to 100 nM. In the case of `CCCCCn1c2cc(-c3cnn(Cc4cncc(F)c4)c3)[nH]c2c(=O)n2c(C)nnc12` [Example 9, 7-(1-((5-Fluoropyridin-3-yl)methyl)-1H-pyrazol-4-yl)-3-methyl-9-pentyl-6,9-dihydro-5H-pyrrolo[3,2-d][1,2,4]triazolo[4,3-a]pyrimidin-5-one], the Ki in assay [1] is less than 10 nM. The EC50 in assay [2] is 10 to 100 nM. Take `CCCCCn1c2cc(-c3cnn(Cc4ccc5c(c4)CCN(C(=O)CN(C)C)C5)c3)[nH]c2c(=O)n2c(C)nnc12` [Example 30, 7-(1-((2-(2-(Dimethylamino)acetyl)-1,2,3,4-tetrahydroisoquinolin-6-yl)methyl)-1H-pyrazol-4-yl)-3-methyl-9-pentyl-6,9-dihydro-5H-pyrrolo[3,2-d][1,2,4]triazolo[4,3-a]pyrimidin-5-one]: the Ki in assay [1] is less than 10 nM. Besides, the EC50 in assay [2] is less than 10 nM. On to `CCCCn1c2cc(-c3cnn(C4CN(c5nccc(N)n5)C4)c3)[nH]c2c(=O)n2c(C)nnc12` [Example 28, 7-(1-(1-(4-Aminopyrimidin-2-yl)azetidin-3-yl)-1H-pyrazol-4-yl)-9-butyl-3-methyl-6,9-dihydro-5H-pyrrolo[3,2-d][1,2,4]triazolo[4,3-a]pyrimidin-5-one], for which the Ki in assay [1] is less than 10 nM. In addition, in assay [2], the EC50 is 10 to 100 nM.

`CCCCCn1c2cc(-c3cnn(C4CN(c5nccc(C#N)n5)C4)c3)[nH]c2c(=O)n2c(C)nnc12` [Example 20, 2-(3-(4-(3-Methyl-5-oxo-9-pentyl-6,9-dihydro-5H-pyrrolo[3,2-d][1,2,4]triazolo[4,3-a]pyrimidin-7-yl)-1H-pyrazol-1-yl)azetidin-1-yl)pyrimidine-4-carbonitrile]: in assay [1], the Ki was less than 10 nM. Besides, the EC50 in assay [2] lay in the range of 10 to 100 nM. In the case of `CCCCCn1c2cc[nH]c2c(=O)n2c(C)nnc12` [Example 1, 3-Methyl-9-pentyl-6,9-dihydro-5H-pyrrolo[3,2-d][1,2,4]triazolo[4,3-a]pyrimidin-5-one], the Ki in assay [1] was in the range of 100 to 1000 nM. On the same count and under the same terms, for `CCCCCn1c2cc(-c3ccc(S(=O)(=O)Nc4ccc(C)cc4)cc3)[nH]c2c(=O)n2c(C)nnc12` [Example 11, 4-(3-Methyl-5-oxo-9-pentyl-6,9-dihydro-5H-pyrrolo[3,2-d][1,2,4]triazolo[4,3-a]pyrimidin-7-yl)-N-p-tolylbenzenesulfonamide] the value was 10 to 100 nM. Regarding `CCCCn1c2cc(-c3cnn(C4CN(c5nccc(OC)n5)C4)c3)[nH]c2c(=O)n2c(C)nnc12` [Example 27, 9-Butyl-7-(1-(1-(4-methoxypyrimidin-2-yl)azetidin-3-yl)-1H-pyrazol-4-yl)-3-methyl-6,9-dihydro-5H-pyrrolo[3,2-d][1,2,4]triazolo[4,3-a]pyrimidin-5-one], the Ki in assay [1] is less than 10 nM. The EC50 in assay [2] fell in the range of 10 to 100 nM. Turning to `CCCCCn1c2cc(-c3cnn(Cc4cnc5cnn(C)c5c4)c3)[nH]c2c(=O)n2c(C)nnc12` [Example 7, 3-Methyl-7-(1-((1-methyl-1H-pyrazolo[4,3-b]pyridin-6-yl)methyl)-1H-pyrazol-4-yl)-9-pentyl-6,9-dihydro-5H-pyrrolo[3,2-d][1,2,4]triazolo[4,3-a]pyrimidin-5-one], in assay [1], the Ki was less than 10 nM. For the same molecule, the EC50 in assay [2] is 10 to 100 nM.

On to `CCCCCn1c2c(C)c[nH]c2c(=O)n2c(C)nnc12` [Example 14, 3,8-Dimethyl-9-pentyl-6,9-dihydro-5H-pyrrolo[3,2-d][1,2,4]triazolo[4,3-a]pyrimidin-5-one], for which, in assay [1], the Ki was in the range of 100 to 1000 nM. In the case of `CCCCCn1c2cc(-c3cnn(Cc4cncc(C)c4)c3)[nH]c2c(=O)n2c(C)nnc12` [Example 3, 3-Methyl-7-(1-((5-methylpyridin-3-yl)methyl)-1H-pyrazol-4-yl)-9-pentyl-6,9-dihydro-5H-pyrrolo[3,2-d][1,2,4]triazolo[4,3-a]pyrimidin-5-one], in assay [1], the Ki was less than 10 nM. Besides, the EC50 in assay [2] was less than 10 nM. Take `CCCCCn1c2c(Br)c[nH]c2c(=O)n2c(C)nnc12` [Example 13, 8-Bromo-3-methyl-9-pentyl-6,9-dihydro-5H-pyrrolo[3,2-d][1,2,4]triazolo[4,3-a]pyrimidin-5-one]: the Ki in assay [1] was in the range of 10 to 100 nM. As for `CCCCCn1c2cc(-c3cnn(Cc4cnc5ccsc5c4)c3)[nH]c2c(=O)n2c(C)nnc12` [Example 4, 3-Methyl-9-pentyl-7-(1-(thieno[3,2-b]pyridin-6-ylmethyl)-1H-pyrazol-4-yl)-6,9-dihydro-5H-pyrrolo[3,2-d][1,2,4]triazolo[4,3-a]pyrimidin-5-one], the Ki in assay [1] was less than 10 nM. For the same molecule, the EC50 in assay [2] is less than 10 nM. In the case of `CCCCCn1c2c(-c3cnn(Cc4ccccc4)c3)c[nH]c2c(=O)n2c(C)nnc12` [Example 17, 8-(1-Benzyl-1H-pyrazol-4-yl)-3-methyl-9-pentyl-6,9-dihydro-5H-pyrrolo[3,2-d][1,2,4]triazolo[4,3-a]pyrimidin-5-one], in assay [1], the Ki was in the range of 100 to 1000 nM.

Regarding `CCCCCn1c2cc(-c3cnn(Cc4ccn5ccnc5c4)c3)[nH]c2c(=O)n2c(C)nnc12` [Example 5, 7-(1-(Imidazo[1,2-a]pyridin-7-ylmethyl)-1H-pyrazol-4-yl)-3-methyl-9-pentyl-6,9-dihydro-5H-pyrrolo[3,2-d][1,2,4]triazolo[4,3-a]pyrimidin-5-one], the Ki in assay [1] was less than 10 nM. The EC50 in assay [2] was 10 to 100 nM. Turning to `CCCCCn1c2c(C#N)c[nH]c2c(=O)n2c(C)nnc12` [Example 16, 3-Methyl-5-oxo-9-pentyl-6,9-dihydro-5H-pyrrolo[3,2-d][1,2,4]triazolo[4,3-a]pyrimidine-8-carbonitrile], the Ki in assay [1] was in the range of 100 to 1000 nM. With `CCCCn1c2cc(-c3cnn(C4CN(c5nccc(C)n5)C4)c3)[nH]c2c(=O)n2c(C)nnc12` [Example 26, 9-Butyl-3-methyl-7-(1-(1-(4-methylpyrimidin-2-yl)azetidin-3-yl)-1H-pyrazol-4-yl)-6,9-dihydro-5H-pyrrolo[3,2-d][1,2,4]triazolo[4,3-a]pyrimidin-5-one], the Ki in assay [1] is less than 10 nM. In assay [2], the EC50 was 10 to 100 nM. For `CCCCCn1c2cc(-c3cnn(Cc4cnc5cccnc5c4)c3)[nH]c2c(=O)n2c(C)nnc12` [Example 6, 7-(1-((1,5-Naphthyridin-3-yl)methyl)-1H-pyrazol-4-yl)-3-methyl-9-pentyl-6,9-dihydro-5H-pyrrolo[3,2-d][1,2,4]triazolo[4,3-a]pyrimidin-5-one], the Ki in assay [1] is less than 10 nM. Moreover, the EC50 in assay [2] lay within 10 to 100 nM.

As for `CCCCCn1c2cc(-c3cnn(Cc4ccccc4)c3)[nH]c2c(=O)n2c(C)nnc12` [Example 10, 7-(1-Benzyl-1H-pyrazol-4-yl)-3-methyl-9-pentyl-6,9-dihydro-5H-pyrrolo[3,2-d][1,2,4]triazolo[4,3-a]pyrimidin-5-one], the Ki in assay [1] is less than 10 nM.

In the case of `CCCCn1c2cc(-c3cnn(C4CN(c5ncccn5)C4)c3)[nH]c2c(=O)n2c(C)nnc12` [Example 24, 9-Butyl-3-methyl-7-(1-(1-(pyrimidin-2-yl)azetidin-3-yl)-1H-pyrazol-4-yl)-6,9-dihydro-5H-pyrrolo[3,2-d][1,2,4]triazolo[4,3-a]pyrimidin-5-one], in assay [1], the Ki is less than 10 nM. In addition, the EC50 in assay [2] was 10 to 100 nM. In the same order, the values of `CCCCCn1c2cc(-c3cnn(C4CN(c5nccc(NC)n5)C4)c3)[nH]c2c(=O)n2c(C)nnc12` [Example 23, 3-Methyl-7-(1-(1-(4-(methylamino)pyrimidin-2-yl)azetidin-3-yl)-1H-pyrazol-4-yl)-9-pentyl-6,9-dihydro-5H-pyrrolo[3,2-d][1,2,4]triazolo[4,3-a]pyrimidin-5-one] are less than 10 nM and 10 to 100 nM. Regarding `CCCCCn1c2cc(-c3cnn(C4CN(c5ncccn5)C4)c3)[nH]c2c(=O)n2c(C)nnc12` [Example 19, 3-Methyl-9-pentyl-7-(1-(1-(pyrimidin-2-yl)azetidin-3-yl)-1H-pyrazol-4-yl)-6,9-dihydro-5H-pyrrolo[3,2-d][1,2,4]triazolo[4,3-a]pyrimidin-5-one], in assay [1], the Ki was less than 10 nM. In addition, in assay [2], the EC50 lay in the range of 10 to 100 nM.
